Where two headings read alike, the source gives them in different places.
Columns and labels:
[1] = Acute toxicity in mice in single oral administration; settings: mouse, in vivo, 30 mg/kg, 30 mg-active ingredient/kg, five 6-week-old CD-1 male mice, 7 days after administration, read-out: Death Rate (%)
Method: Acute toxicity (p.o.) in mice of compound Nos. 8, 10, 13, 22, 23, 38, 42, and 52 was examined as follows. For comparison, compounds (IV), (V) and (VI) disclosed in JP-A-2-62876 were tested similarly.
Compound Nos. 8, 10, 22, 23, 38, and 42 (30 mg each) were each suspended in 10 ml of a 0.5% CMC-Na aqueous solution. Compound Nos. 13 and 52 and compounds (IV), (V) and (VI) (30 mg each) were each suspended in 10 ml of a 0.5% tragacanth gum aqueous solution. The suspension was orally given to a group each consisting of five 6-week-old CD-1 male mice (available from Charles River) at a dose of 10 ml-suspension per kg of the body weight. The number of dead mice was counted after 7 days from the administration to obtain a death rate.

[2] = system: Rice Blast Fungus (Magnaporthe grisea); assay type: in vivo; settings: 250 ppm, 10 ml/pot foliar spray, rice (Akinishiki), lesions per leaf counted vs untreated pot after 24 hours moist chamber and 7 days greenhouse
[3] = system: Tomato Late Blight Fungus (Phytophthora infestans); assay type: in vivo; settings: 250 ppm, 10 ml per pot foliar spray, tomato (Red Cherry), degree of disease vs untreated pot after 24 hours moist chamber and 4 days greenhouse
[4] = system: Larvae of Plutella xylostella; test: Insecticidal effect on larvae of Plutella xylostella (cabbage leaf disc dip); assay type: in vivo; settings: foliar, 96 h, read-out: Death Rate (%)
Method: The agricultural and horticultural pesticide of the present invention (a wettable powder) was obtained in accordance with Formulation Example 1 and diluted with water to prepare a suspension having a prescribed concentration. A disc (6 cm in diameter) cut out of a cabbage leaf was soaked in the suspension for 1 minute, air-dried, and placed in a plastic cup (inner diameter: 7 cm). Five 3-instar larvae of Plutella xylostella were put in the cup (duplicates at one concentration). Four days later, the death and agony of the larvae were examined to obtain a death rate (%) taking an agonizing insect as a 1/2 dead insect. The results obtained are shown in Table 5 (the compound numbers in Table 5 correspond to those in Tables 1, 2 and 3).

[5] = system: Larvae of Nilaparvata lugens; test: Insecticidal effect on larvae of Nilaparvata lugens (spray on rice seedling in glass cylinder); assay type: in vivo; settings: 120 h, read-out: Death Rate (%)
Method: A rice seedling was setted in a glass cylinder (inner diameter: 3 cm; length: 17 cm), and five 4th instar larvae of Nilaparvata lugens were set free therein. The agricultural and horticultural pesticide of the present invention (an emulsifiable concentrate) was prepared in accordance with Formulation Example 3 and diluted with water, and 0.5 ml of the resulting emulsion was sprayed in the cylinder by means of a spray tower (manufactured by Mizuho Rika) (duplicates at 1 concentration). Five days after the treatment, the mortality and agony of the larvae were examined to obtain a death rate (%) taking an agonizing insect as a 1/2 dead insect. The results obtained are shown in Table 4 (the compound numbers in Table 4 correspond to those in Tables 1, 2 and 3).

[6] = 500 ppm, emulsifiable concentrate diluted with water, 4th instar larvae, five days after treatment, agonizing insect counted as 1/2 dead
[7] = 500 ppm, wettable powder suspension, 3-instar larvae, four days later, agonizing insect counted as 1/2 dead

Compound | mortality at 168 h [1] | Control Value (%) [2] | Control Value (%) [3] | mortality at 500 ppm [4] | mortality at 500 ppm [5] | mortality at 500 ppm [5, 6] | mortality at 500 ppm [4, 7]
Cc1nn(C)c(C(=O)NCc2ccc(Oc3cccc(C(F)(F)F)c3)nc2)c1C [Compound No. 10, N-[6-(3-Trifluoromethylphenoxy)-3-pyridylmethyl]-1,3,4-trimethyl-5-pyrazolecarboxamide] | 0% | 89% | 100% | 100% | 100% |  | 
Cc1nn(C)c(C(=O)NCc2ccc(Oc3cccc(Cl)c3)nc2)c1C [compound 8] | 0% |  | 100% |  |  | 100% | 
CCc1nn(C)c(C(=O)NCc2ccc(Oc3cccc(C(F)(F)F)c3)nc2)c1Cl [compound 13] | 0% | 87% | 85% |  |  | 100% | 100%
Cc1nn(C)c(C(=O)NCc2ccc(Oc3ccc4ccccc4c3)nc2)c1Cl [compound 22] | 0% |  | 100% |  |  |  | 
Cc1nn(C)c(C(=O)NCc2ccc(Oc3ccc4ccccc4c3)nc2)c1Br [compound 23] | 0% |  |  |  |  |  | 
CCc1nn(C)c(C(=O)NCc2ccc(Oc3ccc4ccccc4c3)nc2)c1Cl [compound 38] | 0% | 100% |  |  |  | 90% | 90%
Cn1nc2c(c1C(=O)NCc1ccc(Oc3ccc4ccccc4c3)nc1)CCC2 [compound 42] | 0% |  | 100% |  |  | 90% | 100%
COc1c(C)nn(C)c1C(=O)N(Cc1ccc(Oc2ccc3ccccc3c2)nc1)C(C)=O [compound 52] | 0% |  | 100% |  |  | 90% | 

Reference: EP0891975A1 (priority 1996, dated 1997)
